Measured values published in patent publication US9073855B2, “BCL-2 selective apoptosis-inducing agents for the treatment of cancer and immune diseases” (AbbVie Inc., priority 2008, dated 2015).

Assays:
GST-Bcl-2 = GST-Bcl-2 (Homo sapiens, UniProt P10415); assay: TR-FRET binding assay, GST-Bcl-2 with F-Bak peptide probe; conditions: for Ki: TR-FRET Binding Affinity, GST-Bcl-2, F-Bak peptide probe
Procedure, shortened: (§1)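 Ki was derived with Wang's equation for competitive binding of two ligands. The read-out was time-resolved fluorescence after a 3 h room-temperature incubation, using a Tb-labelled antibody donor and the F-Bak peptide acceptor (excitation 340/35 nm). Test compounds entered as DMSO serial dilutions starting at 50 μM, which was the 2× concentration.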

FL5.12/Bcl-2 cells = assay: FL5.12/Bcl-2 cell viability assay under IL-3 withdrawal (CellTitre Glo); format: cell-based, murine; conditions: Mus musculus, IL-3 withdrawn 48 hrs, then 24 hrs with compound
Procedure, shortened: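 Murine IL-3-dependent FL5.12 cells stably overexpressing Bcl-2 were deprived of IL-3 (WEHI-3B conditioned medium) for 48 h, then exposed to various compound concentrations for 24 h at 37 °C. Viability read by CellTiter-Glo luminescence.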

GST-Bcl-XL = GST-Bcl-XL (Homo sapiens, UniProt Q07817); assay: TR-FRET binding assay, GST-Bcl-XL with F-Bak peptide probe; conditions: TR-FRET Binding Affinity, GST-Bcl-XL, F-Bak peptide probe
Procedure, shortened: as §1

Chain of GST-Bcl-2 (P10415 whole entry): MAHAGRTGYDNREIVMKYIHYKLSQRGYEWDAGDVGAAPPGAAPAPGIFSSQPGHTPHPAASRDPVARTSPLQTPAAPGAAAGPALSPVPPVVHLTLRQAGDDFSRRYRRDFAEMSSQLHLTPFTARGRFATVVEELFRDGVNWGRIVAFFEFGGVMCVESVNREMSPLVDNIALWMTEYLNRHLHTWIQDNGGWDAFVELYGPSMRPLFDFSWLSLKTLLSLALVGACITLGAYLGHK
Chain of GST-Bcl-XL (Q07817 whole entry): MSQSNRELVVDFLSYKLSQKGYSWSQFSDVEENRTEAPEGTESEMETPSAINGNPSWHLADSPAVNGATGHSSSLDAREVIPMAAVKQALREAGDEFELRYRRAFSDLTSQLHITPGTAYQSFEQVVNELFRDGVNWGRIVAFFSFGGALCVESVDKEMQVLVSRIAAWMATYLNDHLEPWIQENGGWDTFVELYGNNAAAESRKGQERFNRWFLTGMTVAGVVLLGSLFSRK

O=C(NS(=O)(=O)c1ccc(NCC2CCOCC2)c([N+](=O)[O-])c1)c1ccc(N2CCN(CC3=C(c4ccc(Cl)cc4)CCN(CCCO)C3)CC2)cc1Oc1cccc2[nH]ccc12 [Example 355, 4-(4-{[4-(4-chlorophenyl)-1-(3-hydroxypropyl)-1,2,5,6-tetrahydropyridin-3-yl]methyl}piperazin-1-yl)-2-(1H-indol-4-yloxy)-N-({3-nitro-4-[(tetrahydro-2H-pyran-4-ylmethyl)amino]phenyl}sulfonyl)benzamide]
Ki (GST-Bcl-2): 0.12 nM
EC50 (FL5.12/Bcl-2 cells): > 500 nM
Ki (GST-Bcl-XL): > 660 nM

CC1(C)CCC(CN2CCN(c3ccc(C(=O)NS(=O)(=O)c4ccc(NCC(F)F)c([N+](=O)[O-])c4)c(Oc4ccc5[nH]ccc5c4)c3)CC2)=C(c2ccc(Cl)cc2)C1 [Example 302, 4-(4-{[2-(4-chlorophenyl)-4,4-dimethylcyclohex-1-en-1-yl]methyl}piperazin-1-yl)-N-({4-[(2,2-difluoroethyl)amino]-3-nitrophenyl}sulfonyl)-2-(1H-indol-5-yloxy)benzamide]
Ki (GST-Bcl-2): 0.504 nM
EC50 (FL5.12/Bcl-2 cells): 32.4 nM
Ki (GST-Bcl-XL): > 660 nM

CC1(C)CCC(CN2CCN(c3ccc(C(=O)NS(=O)(=O)c4ccc(NCC5CCC(F)(F)CC5)c([N+](=O)[O-])c4)c(Oc4cccc5[nH]ncc45)c3)CC2)=C(c2ccc(Cl)cc2)C1 [Example 412, 4-(4-{[2-(4-chlorophenyl)-4,4-dimethylcyclohex-1-en-1-yl]methyl}piperazin-1-yl)-N-[(4-{[(4,4-difluorocyclohexyl)methyl]amino}-3-nitrophenyl)sulfonyl]-2-(1H-indazol-4-yloxy)benzamide]
Ki (GST-Bcl-2): 0.021 nM
Binding selectivity ratio (Bcl-XL Ki/Bcl-2 Ki) (GST-Bcl-2; ratio of TR-FRET Ki values, Bcl-XL over Bcl-2): 6545.5
EC50 (FL5.12/Bcl-2 cells): 9.48 nM
Ki (GST-Bcl-XL): 135 nM

O=C(NS(=O)(=O)c1ccc(NCC2CCOCC2)c([N+](=O)[O-])c1)c1ccc(N2CCN(Cc3ccc(C(F)(F)F)cc3-c3ccc(Cl)cc3)CC2)cc1Oc1ccc2[nH]ccc2c1 [Example 339, 4-(4-{[4′-chloro-5-(trifluoromethyl)-1,1′-biphenyl-2-yl]methyl}piperazin-1-yl)-2-(1H-indol-5-yloxy)-N-({3-nitro-4-[(tetrahydro-2H-pyran-4-ylmethyl)amino]phenyl}sulfonyl)benzamide]
Ki (GST-Bcl-2): 14.1 nM
EC50 (FL5.12/Bcl-2 cells): > 500 nM
Ki (GST-Bcl-XL): > 660 nM

CC1(C)CCC(CN2CCN(c3ccc(C(=O)NS(=O)(=O)c4ccc(NC[C@H]5CC[C@H](O)CC5)c([N+](=O)[O-])c4)c(Oc4ccc5[nH]ccc5c4)c3)CC2)=C(c2ccc(Cl)cc2)C1 [Example 310, Trans-4-(4-{[2-(4-chlorophenyl)-4,4-dimethylcyclohex-1-en-1-yl]methyl}piperazin-1-yl)-N-[(4-{[(4-hydroxycyclohexyl)methyl]amino}-3-nitrophenyl)sulfonyl]-2-(1H-indol-5-yloxy)benzamide]
Ki (GST-Bcl-2): 0.049 nM
EC50 (FL5.12/Bcl-2 cells): 4.51 nM
Ki (GST-Bcl-XL): > 660 nM

COCCCNc1ccc(S(=O)(=O)NC(=O)c2ccc(N3CCN(CC4=C(c5ccc(Cl)cc5)CC(C)(C)CC4)CC3)cc2Oc2ccc3[nH]ccc3c2)cc1[N+](=O)[O-] [Example 317, 4-(4-{[2-(4-chlorophenyl)-4,4-dimethylcyclohex-1-en-1-yl]methyl}piperazin-1-yl)-2-(1H-indol-5-yloxy)-N-({4-[(3-methoxypropyl)amino]-3-nitrophenyl}sulfonyl)benzamide]
Ki (GST-Bcl-2): 2.8 nM
EC50 (FL5.12/Bcl-2 cells): 83.1 nM
Ki (GST-Bcl-XL): > 660 nM

CC1(C)CCC(CN2CCN(c3ccc(C(=O)NS(=O)(=O)c4ccc(Nc5ccc(O)cc5)c([N+](=O)[O-])c4)c(Oc4ccc5[nH]ccc5c4)c3)CC2)=C(c2ccc(Cl)cc2)C1 [Example 375, 4-(4-{[2-(4-chlorophenyl)-4,4-dimethylcyclohex-1-en-1-yl]methyl}piperazin-1-yl)-N-({4-[(4-hydroxyphenyl)amino]-3-nitrophenyl}sulfonyl)-2-(1H-indol-5-yloxy)benzamide]
Ki (GST-Bcl-2): 11.3 nM
EC50 (FL5.12/Bcl-2 cells): > 500 nM
Ki (GST-Bcl-XL): > 660 nM

CN1CCC(O)(CNc2ccc(S(=O)(=O)NC(=O)c3ccc(N4CCN(CC5=C(c6ccc(Cl)cc6)CC(C)(C)CC5)CC4)cc3Oc3ccc4[nH]ccc4c3)cc2[N+](=O)[O-])CC1 [Example 183, 4-(4-{[2-(4-chlorophenyl)-4,4-dimethylcyclohex-1-en-1-yl]methyl}piperazin-1-yl)-N-[(4-{[(4-hydroxy-1-methylpiperidin-4-yl)methyl]amino}-3-nitrophenyl)sulfonyl]-2-(1H-indol-5-yloxy)benzamide]
Ki (GST-Bcl-2): 0.039 nM
EC50 (FL5.12/Bcl-2 cells): 30.8 nM
Ki (GST-Bcl-XL): 9.43 nM

CN1CCN(Nc2ccc(S(=O)(=O)NC(=O)c3ccc(N4CCN(CC5=C(c6ccc(Cl)cc6)CC(C)(C)CC5)CC4)cc3Oc3cccc4[nH]ccc34)cc2[N+](=O)[O-])CC1 [Example 190, 4-(4-{[2-(4-chlorophenyl)-4,4-dimethylcyclohex-1-en-1-yl]methyl}piperazin-1-yl)-2-(1H-indol-4-yloxy)-N-({4-[(4-methylpiperazin-1-yl)amino]-3-nitrophenyl}sulfonyl)benzamide]
Ki (GST-Bcl-2): 0.512 nM
EC50 (FL5.12/Bcl-2 cells): 24.2 nM
Ki (GST-Bcl-XL): 97.1 nM

CC1(C)CCC(CN2CCN(c3ccc(C(=O)NS(=O)(=O)c4ccc(NC[C@H]5CCCO5)c([N+](=O)[O-])c4)c(Oc4ccc5[nH]ccc5c4)c3)CC2)=C(c2ccc(Cl)cc2)C1 [Example 370, 4-(4-{[2-(4-chlorophenyl)-4,4-dimethylcyclohex-1-en-1-yl]methyl}piperazin-1-yl)-2-(1H-indol-5-yloxy)-N-[(3-nitro-4-{[(2R)-tetrahydrofuran-2-ylmethyl]amino}phenyl)sulfonyl]benzamide]
Ki (GST-Bcl-2): 0.904 nM
EC50 (FL5.12/Bcl-2 cells): 263 nM
Ki (GST-Bcl-XL): > 660 nM

COCCOCCNc1ccc(S(=O)(=O)NC(=O)c2ccc(N3CCN(CC4=C(c5ccc(Cl)cc5)CC(C)(C)CC4)CC3)cc2Oc2cccc3[nH]ccc23)cc1[N+](=O)[O-] [Example 293, 4-(4-{[2-(4-chlorophenyl)-4,4-dimethylcyclohex-1-en-1-yl]methyl}piperazin-1-yl)-2-(1H-indol-4-yloxy)-N-[(4-{[2-(2-methoxyethoxy)ethyl]amino}-3-nitrophenyl)sulfonyl]benzamide]
Ki (GST-Bcl-2): 0.516 nM
EC50 (FL5.12/Bcl-2 cells): 68.1 nM
Ki (GST-Bcl-XL): 260 nM

COCCNc1ccc(S(=O)(=O)NC(=O)c2ccc(N3CCN(CC4=C(c5ccc(Cl)cc5)CC(C)(C)CC4)CC3)cc2Oc2cccc3[nH]ccc23)cc1[N+](=O)[O-] [Example 239, 4-(4-{[2-(4-chlorophenyl)-4,4-dimethylcyclohex-1-en-1-yl]methyl}piperazin-1-yl)-2-(1H-indol-4-yloxy)-N-({4-[(2-methoxyethyl)amino]-3-nitrophenyl}sulfonyl)benzamide]
Ki (GST-Bcl-2): 0.252 nM
EC50 (FL5.12/Bcl-2 cells): 17.6 nM
Ki (GST-Bcl-XL): 108 nM

CC1(C)CCC(CN2CCN(c3ccc(C(=O)NS(=O)(=O)c4ccc(NC5CCN(c6nccs6)CC5)c([N+](=O)[O-])c4)c(Oc4ccc5[nH]ccc5c4)c3)CC2)=C(c2ccc(Cl)cc2)C1 [Example 212, 4-(4-{[2-(4-chlorophenyl)-4,4-dimethylcyclohex-1-en-1-yl]methyl}piperazin-1-yl)-2-(1H-indol-5-yloxy)-N-[(3-nitro-4-{[1-(1,3-thiazol-2-yl)piperidin-4-yl]amino}phenyl)sulfonyl]benzamide]
Ki (GST-Bcl-2): 0.737 nM
EC50 (FL5.12/Bcl-2 cells): > 500 nM
Ki (GST-Bcl-XL): > 660 nM

CC1(C)CCC(CN2CCN(c3ccc(C(=O)NS(=O)(=O)c4ccc(NCC5CCN(C(=O)OCc6ccccc6)CC5)c([N+](=O)[O-])c4)c(Oc4ccc5[nH]ccc5c4)c3)CC2)=C(c2ccc(Cl)cc2)C1 [Example 356, benzyl 4-({[4-({[4-(4-{[2-(4-chlorophenyl)-4,4-dimethylcyclohex-1-en-1-yl]methyl}piperazin-1-yl)-2-(1H-indol-5-yloxy)benzoyl]amino}sulfonyl)-2-nitrophenyl]amino}methyl)piperidine-1-carboxylate]
Ki (GST-Bcl-2): 5.02 nM
EC50 (FL5.12/Bcl-2 cells): > 500 nM
Ki (GST-Bcl-XL): > 660 nM

CC1(C)CCC(CN2CCN(c3ccc(C(=O)NS(=O)(=O)c4ccc(NC5CCN(CCCO)CC5)c([N+](=O)[O-])c4)c(Oc4ccc5[nH]ccc5c4)c3)CC2)=C(c2ccc(Cl)cc2)C1 [Example 197, 4-(4-{[2-(4-chlorophenyl)-4,4-dimethylcyclohex-1-en-1-yl]methyl}piperazin-1-yl)-N-[(4-{[1-(3-hydroxypropyl)piperidin-4-yl]amino}-3-nitrophenyl)sulfonyl]-2-(1H-indol-5-yloxy)benzamide]
Ki (GST-Bcl-2): 0.025 nM
EC50 (FL5.12/Bcl-2 cells): 6.18 nM
Ki (GST-Bcl-XL): 4.84 nM

CC1(C)CCC(CN2CCN(c3ccc(C(=O)NS(=O)(=O)c4ccc(OCC5(C)COC5)c([N+](=O)[O-])c4)c(Oc4ccc5[nH]ccc5c4)c3)CC2)=C(c2ccc(Cl)cc2)C1 [Example 286, 4-(4-{[2-(4-chlorophenyl)-4,4-dimethylcyclohex-1-en-1-yl]methyl}piperazin-1-yl)-2-(1H-indol-5-yloxy)-N-({4-[(3-methyloxetan-3-yl)methoxy]-3-nitrophenyl}sulfonyl)benzamide]
Ki (GST-Bcl-2): 0.567 nM
EC50 (FL5.12/Bcl-2 cells): 279 nM
Ki (GST-Bcl-XL): > 660 nM
